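In this assay, cells in 96-well plates receive the compound at five concentrations for 48 hours. Endpoints are linearly interpolated between the surrounding concentrations. The concentration for 50% growth inhibition is given as GI50.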 Calls of active or inactive are those of the source. No stated cut-off is given here; in the data, active = GI50 up to about 1.1 µM and inactive = higher.
Tests used:
Assay in all cases: NCI anticancer screen, dose series, 48 h
786-0 = test system: 786-0
A498 = test system: A498
A549 = test system: A549
ACHN = test system: ACHN
BT-549 = test system: BT-549
CAKI-1 = test system: CAKI-1
CCRF-CEM = test system: CCRF-CEM
COLO 205 = test system: COLO 205
DLD-1 = test system: DLD-1
DU-145 = test system: DU-145
EKVX = test system: EKVX
HCT-116 = test system: HCT-116
HCT-15 = test system: HCT-15
HL-60 = test system: HL-60
HOP-18 = test system: HOP-18
HOP-62 = test system: HOP-62
HOP-92 = test system: HOP-92
HT-29 = test system: HT-29
Hs-578T = test system: Hs-578T
IGROV-1 = test system: IGROV-1
K562 = test system: K562
KM-20L2 = test system: KM-20L2
KM12 = test system: KM12
LOX IMVI = test system: LOX IMVI
LXFL 529 = test system: LXFL 529
M14 = test system: M14
M19-MEL = test system: M19-MEL
MCF7 = test system: MCF7
MDA-MB-231 = test system: MDA-MB-231
MDA-MB-435 = test system: MDA-MB-435
MDA-N = test system: MDA-N
MOLT-4 = test system: MOLT-4
Malme-3M = test system: Malme-3M
NCI-H226 = test system: NCI-H226
NCI-H23 = test system: NCI-H23
NCI-H460 = test system: NCI-H460
NCI-H522 = test system: NCI-H522
NCI/ADR-RES = test system: NCI/ADR-RES
OVCAR-3 = test system: OVCAR-3
OVCAR-4 = test system: OVCAR-4
OVCAR-5 = test system: OVCAR-5
OVCAR-8 = test system: OVCAR-8
PC-3 = test system: PC-3
RPMI-8226 = test system: RPMI-8226
RXF 393 = test system: RXF 393
RXF 631 = test system: RXF 631
SF-268 = test system: SF-268
SF-295 = test system: SF-295
SF-539 = test system: SF-539
SK-MEL-28 = test system: SK-MEL-28
SK-MEL-2 = test system: SK-MEL-2
SK-MEL-5 = test system: SK-MEL-5
SK-OV-3 = test system: SK-OV-3
SN12C = test system: SN12C
SNB-19 = test system: SNB-19
SNB-75 = test system: SNB-75
SNB-78 = test system: SNB-78
SR = test system: SR
SW-620 = test system: SW-620
TK-10 = test system: TK-10
U-251 = test system: U-251
UACC-257 = test system: UACC-257
UACC-62 = test system: UACC-62
UO-31 = test system: UO-31
XF498 = test system: XF498
DMS-114 = test system: DMS-114
DMS-273 = test system: DMS-273
HCC 2998 = test system: HCC 2998

Question: What does the source list for `C/C(=N\NS(=O)(=O)c1ccc(C)cc1)C(CN(C)C)C(c1ccccc1)c1c(O)c2ccccc2oc1=O` (stereo not drawn)?
Answer: GI50 (786-0): > 100 µM (inactive); GI50 (A498): > 100 µM (inactive); GI50 (A549): > 100 µM (inactive); GI50 (ACHN): > 100 µM (inactive); GI50 (BT-549): > 100 µM (inactive); GI50 (CAKI-1): > 100 µM (inactive); GI50 (CCRF-CEM): > 100 µM (inactive); GI50 (COLO 205): > 95.3 µM (inactive); GI50 (DLD-1): > 100 µM (inactive); GI50 (DU-145): > 100 µM (inactive); GI50 (EKVX): > 100 µM (inactive); GI50 (HCT-116): > 100 µM (inactive); GI50 (HCT-15): > 100 µM; GI50 (HL-60): > 100 µM (inactive); GI50 (HOP-18): > 100 µM (inactive); GI50 (HOP-62): 89.9 µM (inactive); GI50 (HOP-92): 60 µM (inactive); GI50 (HT-29): > 100 µM (inactive); GI50 (Hs-578T): > 100 µM (inactive); GI50 (IGROV-1): > 100 µM (inactive); GI50 (K562): > 84.5 µM (inactive); GI50 (KM-20L2): > 100 µM (inactive); GI50 (KM12): > 100 µM (inactive); GI50 (LOX IMVI): > 100 µM (inactive); GI50 (LXFL 529): > 100 µM (inactive); GI50 (M14): > 100 µM (inactive); GI50 (M19-MEL): > 100 µM (inactive); GI50 (MCF7): > 100 µM (inactive); GI50 (MDA-MB-231): > 100 µM (inactive); GI50 (MDA-MB-435): > 100 µM (inactive); GI50 (MDA-N): > 100 µM (inactive); GI50 (MOLT-4): > 100 µM (inactive); GI50 (Malme-3M): > 100 µM (inactive); GI50 (NCI-H226): > 100 µM (inactive); GI50 (NCI-H23): > 100 µM (inactive); GI50 (NCI-H460): > 100 µM (inactive); GI50 (NCI-H522): > 100 µM (inactive); GI50 (NCI/ADR-RES): > 100 µM (inactive); GI50 (OVCAR-3): > 100 µM (inactive); GI50 (OVCAR-4): > 100 µM (inactive); GI50 (OVCAR-5): > 100 µM (inactive); GI50 (OVCAR-8): > 100 µM (inactive); GI50 (PC-3): > 100 µM (inactive); GI50 (RPMI-8226): > 95.9 µM (inactive); GI50 (RXF 393): 55.2 µM (inactive); GI50 (RXF 631): > 100 µM (inactive); GI50 (SF-268): > 100 µM (inactive); GI50 (SF-295): > 100 µM (inactive); GI50 (SF-539): > 100 µM (inactive); GI50 (SK-MEL-28): > 100 µM (inactive); GI50 (SK-MEL-2): > 100 µM (inactive); GI50 (SK-MEL-5): > 100 µM (inactive); GI50 (SK-OV-3): 99.1 µM (inactive); GI50 (SN12C): > 100 µM (inactive); GI50 (SNB-19): > 100 µM (inactive); GI50 (SNB-75): > 51.9 µM (inactive); GI50 (SNB-78): > 100 µM (inactive); GI50 (SR): > 60 µM (inactive); GI50 (SW-620): > 69.3 µM (inactive); GI50 (TK-10): > 100 µM (inactive); GI50 (U-251): > 100 µM (inactive); GI50 (UACC-257): > 100 µM (inactive); GI50 (UACC-62): > 86.3 µM (inactive); GI50 (UO-31): > 81.7 µM (inactive); GI50 (XF498): > 100 µM (inactive)

Question: How did the GI50 (786-0) turn out when `COC(=O)N/N=c1\cc(C(=O)Nc2ccc(C)c(C)c2)oc2cc(O)ccc12` was run?
Answer: > 100 µM (inactive)

Question: What about the GI50 (A498) of the same molecule?
Answer: > 100 µM (inactive)

Question: And the GI50 (A549)?
Answer: > 100 µM (inactive)

Question: And the GI50 (ACHN)?
Answer: > 100 µM (inactive)

Question: What about the GI50 (CAKI-1) of the same molecule?
Answer: > 100 µM (inactive)

Question: What about the GI50 (CCRF-CEM) of the same molecule?
Answer: > 100 µM (inactive)

Question: And the GI50 (COLO 205)?
Answer: > 100 µM (inactive)

Question: And the GI50 (DLD-1)?
Answer: > 100 µM (inactive)

Question: What about the GI50 (DMS-114) of the same molecule?
Answer: > 100 µM (inactive)

Question: What about the GI50 (DMS-273) of the same molecule?
Answer: > 100 µM (inactive)

Question: What about the GI50 (EKVX) of the same molecule?
Answer: > 100 µM (inactive)

Question: And the GI50 (HCC 2998)?
Answer: > 100 µM (inactive)

Question: What about the GI50 (HCT-116) of the same molecule?
Answer: > 100 µM (inactive)

Question: And the GI50 (HCT-15)?
Answer: > 100 µM

Question: And the GI50 (HL-60)?
Answer: > 100 µM (inactive)

Question: What about the GI50 (HOP-18) of the same molecule?
Answer: > 100 µM (inactive)

Question: What about the GI50 (HOP-62) of the same molecule?
Answer: > 100 µM (inactive)

Question: And the GI50 (HOP-92)?
Answer: > 100 µM (inactive)

Question: And the GI50 (HT-29)?
Answer: > 100 µM (inactive)

Question: And the GI50 (IGROV-1)?
Answer: > 100 µM (inactive)

Question: What about the GI50 (K562) of the same molecule?
Answer: > 100 µM (inactive)

Question: And the GI50 (KM-20L2)?
Answer: > 100 µM (inactive)

Question: And the GI50 (KM12)?
Answer: > 100 µM (inactive)

Question: And the GI50 (LOX IMVI)?
Answer: > 100 µM (inactive)

Question: What about the GI50 (LXFL 529) of the same molecule?
Answer: > 100 µM (inactive)

Question: What about the GI50 (M14) of the same molecule?
Answer: > 100 µM (inactive)

Question: What about the GI50 (M19-MEL) of the same molecule?
Answer: > 100 µM (inactive)

Question: What about the GI50 (MOLT-4) of the same molecule?
Answer: > 100 µM (inactive)

Question: What about the GI50 (Malme-3M) of the same molecule?
Answer: > 100 µM (inactive)

Question: What about the GI50 (NCI-H226) of the same molecule?
Answer: > 100 µM (inactive)

Question: What about the GI50 (NCI-H23) of the same molecule?
Answer: > 100 µM (inactive)

Question: And the GI50 (NCI-H460)?
Answer: > 100 µM (inactive)

Question: What about the GI50 (NCI-H522) of the same molecule?
Answer: > 100 µM (inactive)

Question: And the GI50 (OVCAR-3)?
Answer: > 100 µM (inactive)

Question: And the GI50 (OVCAR-4)?
Answer: > 100 µM (inactive)

Question: And the GI50 (OVCAR-5)?
Answer: > 100 µM (inactive)

Question: What about the GI50 (OVCAR-8) of the same molecule?
Answer: > 100 µM (inactive)

Question: What about the GI50 (RXF 393) of the same molecule?
Answer: > 100 µM (inactive)

Question: And the GI50 (RXF 631)?
Answer: > 100 µM (inactive)

Question: What about the GI50 (SF-268) of the same molecule?
Answer: > 100 µM (inactive)

Question: And the GI50 (SF-295)?
Answer: > 100 µM (inactive)

Question: What about the GI50 (SF-539) of the same molecule?
Answer: > 100 µM (inactive)

Question: What about the GI50 (SK-MEL-28) of the same molecule?
Answer: > 100 µM (inactive)

Question: What about the GI50 (SK-MEL-2) of the same molecule?
Answer: > 100 µM (inactive)

Question: What about the GI50 (SK-MEL-5) of the same molecule?
Answer: > 100 µM (inactive)

Question: What about the GI50 (SK-OV-3) of the same molecule?
Answer: > 100 µM (inactive)

Question: What about the GI50 (SN12C) of the same molecule?
Answer: > 100 µM (inactive)

Question: And the GI50 (SNB-19)?
Answer: > 100 µM (inactive)

Question: And the GI50 (SNB-75)?
Answer: > 100 µM (inactive)

Question: What about the GI50 (SNB-78) of the same molecule?
Answer: > 100 µM (inactive)

Question: And the GI50 (SR)?
Answer: > 100 µM (inactive)

Question: And the GI50 (SW-620)?
Answer: > 100 µM (inactive)

Question: What about the GI50 (TK-10) of the same molecule?
Answer: > 100 µM (inactive)

Question: And the GI50 (U-251)?
Answer: > 100 µM (inactive)

Question: And the GI50 (UACC-257)?
Answer: > 100 µM (inactive)

Question: What about the GI50 (UACC-62) of the same molecule?
Answer: > 100 µM (inactive)

Question: What about the GI50 (UO-31) of the same molecule?
Answer: > 100 µM (inactive)

Question: What about the GI50 (XF498) of the same molecule?
Answer: > 100 µM (inactive)

Source: ChEMBL document CHEMBL1201862, “PubChem BioAssay data set” (2004)
